Experimental data from the Bradley open melting point set (2014).
Values joined by “and” are separate entries in the source; they are usually repeats but may differ in a detail not shown here. Equal values may be shown once.

For O=C1CN2CCOC2(c2ccccc2F)c2cc(Br)ccc2N1 (centres undefined) [haloxazolam], which melting point is on record?
Its melting point is 185 °C.

Which melting point does the source give for Brc1c(Br)c(Br)c(Br)c(Br)c1Br [hexabromobenzene] here?
The melting point was 306 °C.

For C[Si]1(C)O[Si](C)(C)O[Si](C)(C)O1 [hexamethylcyclotrisiloxane], which melting point is on record?
The melting point was 65 °C.

For CCCCCC(=O)O [hexanoic acid], which melting point is on record?
The melting point was -1.9 °C.

Which melting point does the source give for c1ccc([Si]2(c3ccccc3)O[Si](c3ccccc3)(c3ccccc3)O[Si](c3ccccc3)(c3ccccc3)O2)cc1 [hexaphenylcyclotrisiloxane] here?
Its melting point is 180 °C.

Which melting point does the source give for c1ccc([Si](c2ccccc2)(c2ccccc2)[Si](c2ccccc2)(c2ccccc2)c2ccccc2)cc1 [hexaphenyldisilane] here?
Its melting point is 369 °C.

For CCCCCCOC(C)=O [hexyl_acetate], which melting point is on record?
The melting point was -80 °C.

Which melting point does the source give for NS(=O)(=O)c1cc2c(cc1Cl)NCNS2(=O)=O [hydrochlorothiazide] here?
The melting point was 270 °C.

Which melting point does the source give for CC12CCC(=O)C=C1CCC1C2C(O)CC2(C)C1CCC2(O)C(=O)CO (centres undefined) [hydrocortisone] here?
Its melting point is 223 °C.

Which melting point does the source give for NS(=O)(=O)c1cc2c(cc1C(F)(F)F)NCNS2(=O)=O [hydroflumethiazide] here?
The melting point was 272 °C.

For Oc1ccc(O)cc1 [hydroquinone] [listing 1 of 2 here], which melting point is on record?
Its melting point is 175 °C.

Which melting point does the source give for Oc1ccc(O)cc1 [hydroquinone] [listing 2 of 2 here] here?
The melting point was 172 °C.

For CC(=O)Oc1ccc(OC(C)=O)cc1 [hydroquinone_diacetate], which melting point is on record?
The melting point was 125 °C.

With CC(C)Cc1ccc(C(C)C(=O)O)cc1 (centres undefined) [ibuprofen] as the compound, how does the melting point read?
The melting point was 76 °C.

For N#Cc1ccc2cc[nH]c2c1 [indole-6-carbonitrile], which melting point is on record?
The melting point was 130 °C.

Which melting point does the source give for c1ccc2[nH]ccc2c1 [indole] here?
The melting point was 52 °C.

Which melting point does the source give for Ic1ccccc1 [iodobenzene] here?
The melting point was -31 °C.

For CCCCC1=NC2(CCCC2)C(=O)N1Cc1ccc(-c2ccccc2-c2nnn[nH]2)cc1 [irbesartan], which melting point is on record?
Its melting point is 180 °C.

Which melting point does the source give for CC(C)CB(O)O [isobutylboronic acid] here?
The melting point was 109 °C.

Which melting point does the source give for CC(C)C=O [isobutyraldehyde] here?
Its melting point is -65 °C.

With CC(C)C#N [isobutyronitrile] as the compound, how does the melting point read?
Its melting point is -72 °C.

With Cc1cc(C(=O)NNCc2ccccc2)no1 [isocarboxazid] as the compound, how does the melting point read?
Its melting point is 106 °C.

Which melting point does the source give for NNC(=O)c1ccncc1 [isoniazid] here?
The melting point was 171 °C.

Which melting point does the source give for NC(=O)c1ccncc1 [isonicotinamide] here?
Its melting point is 157 °C.

Which melting point does the source give for CCOC(=O)c1cccc(C(=O)O)c1 [isophthalic acid, monoethyl ester] here?
Its melting point is 109 °C.

Which melting point does the source give for N#Cc1cccc(C#N)c1 [isophthalonitrile] here?
The melting point was 161 °C.

With CC(C)N [isopropylamine] as the compound, how does the melting point read?
Its melting point is -101 °C.

With [O-][n+]1ccc2ccccc2c1 [isoquinoline n-oxide] as the compound, how does the melting point read?
Its melting point is 104 °C.

With OC1COC2C(O)COC12 (centres undefined) [isosorbide] as the compound, how does the melting point read?
Its melting point is 61 °C.

For Oc1noc2nc3ccccc3nc12 [isoxazolo[4,5-b]quinoxalin-3(2H)-one], which melting point is on record?
Its melting point is 323 °C.

Which melting point does the source give for CC(COc1ccccc1)NC(C)C(O)c1ccc(O)cc1 (centres undefined) [isoxsuprine] here?
Its melting point is 103 °C.

For C=C(CC(=O)O)C(=O)O [itaconic acid], which melting point is on record?
Its melting point is 167 °C.

Which melting point does the source give for CCC(=O)C1(c2cccc(O)c2)CCN(C)CC1 [ketobemidone] here?
The melting point was 156 °C.

For CC(=O)N1CCN(c2ccc(OCC3COC(Cn4ccnc4)(c4ccc(Cl)cc4Cl)O3)cc2)CC1 (centres undefined) [ketoconazole], which melting point is on record?
Its melting point is 146 °C.

Which melting point does the source give for CC(C(=O)O)c1cccc(C(=O)c2ccccc2)c1 (centres undefined) [ketoprofen] here?
Its melting point is 94 °C.

With O=c1cc(CO)occ1O [kojic acid] as the compound, how does the melting point read?
The melting point was 154 °C.

Which melting point does the source give for CC(O)C(=O)O (centres undefined) [lactic acid] here?
The melting point was 18 °C.

For Cc1ccnc2ccccc12 [lepidine], which melting point is on record?
The melting point was 10 °C.

With N#Cc1ccc(C(c2ccc(C#N)cc2)n2cncn2)cc1 [letrozole] as the compound, how does the melting point read?
Its melting point is 181 °C.

For CCCCC/C=C\C/C=C\CCCCCCCC(=O)O [linoleic acid], which melting point is on record?
The melting point was -12 °C.

With O=C1Nc2ccc(Cl)cc2C(c2ccccc2Cl)=NC1O (centres undefined) [lorazepam] as the compound, how does the melting point read?
The melting point was 166 °C.

Which melting point does the source give for CC[C@H](C)C(=O)O[C@H]1C[C@@H](C)C=C2C=C[C@H](C)[C@H](CC[C@@H]3C[C@@H](O)CC(=O)O3)[C@H]21 [lovastatin] here?
The melting point was 175 °C.

With O=C(O[C@@H]1[C@H]3C(=C/[C@H](C)C1)\C=C/[C@@H]([C@@H]3CC[C@H]2OC(=O)C[C@H](O)C2)C)[C@@H](C)CC [lovastatin] as the compound, how does the melting point read?
Its melting point is 174 °C.

Which melting point does the source give for O=C\1c3c(O/C(=C/1)c2ccc(O)c(O)c2)cc(O)cc3O [luteolin] here?
The melting point was 330 °C.

With Cc1cccc(O)c1 [m-Cresol] as the compound, how does the melting point read?
The melting point was 11 °C.

With CC(=O)Oc1cccc(C(=O)O)c1 [m-acetoxy_benzoic_acid] as the compound, how does the melting point read?
The melting point was 133 °C.

With NC(=O)c1cccc(N)c1 [m-aminobenzamide] as the compound, how does the melting point read?
The melting point was 115 °C.

For O=C(O)c1cccc(Br)c1 [m-bromobenzoic_acid], which melting point is on record?
The melting point was 157 °C.

For Brc1cccc(I)c1 [m-bromoiodobenzene], which melting point is on record?
The melting point was -9 °C.

With Oc1cccc(Br)c1 [m-bromophenol] as the compound, how does the melting point read?
Its melting point is 31 °C.

Which melting point does the source give for Nc1cccc(Cl)c1 [m-chloroaniline] here?
Its melting point is -10 °C.

Which melting point does the source give for O=Cc1cccc(Cl)c1 [m-chlorobenzaldehyde] here?
The melting point was 18 °C.

Which melting point does the source give for O=C(O)/C=C/c1cccc(Cl)c1 [m-chlorocinnamic_acid__(trans)] here?
Its melting point is 159 °C.

Which melting point does the source give for Cc1cccc(O)c1 [m-cresol] [listing 1 of 2 here] here?
The melting point was 12 °C.

For Cc1cccc(O)c1 [m-cresol] [listing 2 of 2 here], which melting point is on record?
The melting point was 11 °C.

Which melting point does the source give for Ic1cccc(I)c1 [m-diiodobenzene] here?
The melting point was 37 °C.

Which melting point does the source give for O=Cc1cccc(C(=O)O)c1 [m-formyl_benzoic_acid] here?
Its melting point is 175 °C.

For NC(=O)c1cccc(O)c1 [m-hydroxybenzamide], which melting point is on record?
The melting point was 170 °C.

With Oc1cccc(I)c1 [m-iodophenol] as the compound, how does the melting point read?
The melting point was 43 °C.

With O=Cc1cccc([N+](=O)[O-])c1 [m-nitrobenzaldehyde] as the compound, how does the melting point read?
Its melting point is 59 °C.

Which melting point does the source give for NC(=O)c1cccc([N+](=O)[O-])c1 [m-nitrobenzamide] here?
The melting point was 143 °C.

For O=C(O)c1cccc([N+](=O)[O-])c1 [m-nitrobenzoic_acid], which melting point is on record?
Its melting point is 142 °C.

With N#Cc1cccc([N+](=O)[O-])c1 [m-nitrobenzonitrile] as the compound, how does the melting point read?
Its melting point is 117 °C.

For O=[N+]([O-])c1cccc(O)c1 [m-nitrophenol], which melting point is on record?
The melting point was 98 °C.

With C=Cc1cccc([N+](=O)[O-])c1 [m-nitrostyrene] as the compound, how does the melting point read?
Its melting point is -5 °C.

For Nc1cccc(N)c1 [m-phenylenediamine], which melting point is on record?
Its melting point is 65 °C.

Which melting point does the source give for c1ccc(-c2cccc(-c3ccccc3)c2)cc1 [m-terphenyl] here?
The melting point was 87 °C.

For Cc1cccc(N)c1 [m-toluidine], which melting point is on record?
Its melting point is -30 °C.

Which melting point does the source give for Cc1cccc(C#N)c1 [m-tolunitrile] here?
The melting point was -23 °C.

For CC(=O)Oc1cccc(C)c1 [m-tolyl_acetate], which melting point is on record?
Its melting point is 12 °C.

With C=Cc1cccc(O)c1 [m-vinyl_phenol] as the compound, how does the melting point read?
Its melting point is 1 °C.

For NNC(=O)CC(=O)NN [malonic acid dihydrazide], which melting point is on record?
The melting point was 154 °C.

Which melting point does the source give for CCC(C)C(C)(COC(N)=O)COC(N)=O (centres undefined) [mebutamate] here?
Its melting point is 77 °C.

For Cc1nc2ccccc2c(=O)n1-c1ccccc1Cl [mecloqualone], which melting point is on record?
Its melting point is 126 °C.

Which melting point does the source give for CC1CCC(C(C)C)C(O)C1 (centres undefined) [menthol] here?
Its melting point is 45 °C.

Which melting point does the source give for CCC1(c2ccccc2)NC(=O)N(C)C1=O (centres undefined) [mephenytoin] [listing 1 of 2 here] here?
The melting point was 136 °C.

For CCC1(c2ccccc2)NC(=O)N(C)C1=O (centres undefined) [mephenytoin] [listing 2 of 2 here], which melting point is on record?
Its melting point is 135 °C and 136 °C.

For Cc1cc(C)c(C(=O)C(=O)O)c(C)c1 [mesitylglyoxylic acid], which melting point is on record?
Its melting point is 121 °C.

For OCC(O)C(O)CO (stereo not drawn) [meso-erythritol], which melting point is on record?
The melting point was 122 °C.
